{"source": "patent US20240271100A1", "about": "“IN VITRO DIFFERENTIATION OF PANCREATIC ENDOCRINE CELLS” (VERTEX PHARMACEUTICALS INCORPORATED, priority 2020, published 2024)", "key": {"[1]": {"biological_target": "EZH2 (Homo sapiens, UniProt Q15910)", "sequence (Q15910 whole entry, species assumed)": "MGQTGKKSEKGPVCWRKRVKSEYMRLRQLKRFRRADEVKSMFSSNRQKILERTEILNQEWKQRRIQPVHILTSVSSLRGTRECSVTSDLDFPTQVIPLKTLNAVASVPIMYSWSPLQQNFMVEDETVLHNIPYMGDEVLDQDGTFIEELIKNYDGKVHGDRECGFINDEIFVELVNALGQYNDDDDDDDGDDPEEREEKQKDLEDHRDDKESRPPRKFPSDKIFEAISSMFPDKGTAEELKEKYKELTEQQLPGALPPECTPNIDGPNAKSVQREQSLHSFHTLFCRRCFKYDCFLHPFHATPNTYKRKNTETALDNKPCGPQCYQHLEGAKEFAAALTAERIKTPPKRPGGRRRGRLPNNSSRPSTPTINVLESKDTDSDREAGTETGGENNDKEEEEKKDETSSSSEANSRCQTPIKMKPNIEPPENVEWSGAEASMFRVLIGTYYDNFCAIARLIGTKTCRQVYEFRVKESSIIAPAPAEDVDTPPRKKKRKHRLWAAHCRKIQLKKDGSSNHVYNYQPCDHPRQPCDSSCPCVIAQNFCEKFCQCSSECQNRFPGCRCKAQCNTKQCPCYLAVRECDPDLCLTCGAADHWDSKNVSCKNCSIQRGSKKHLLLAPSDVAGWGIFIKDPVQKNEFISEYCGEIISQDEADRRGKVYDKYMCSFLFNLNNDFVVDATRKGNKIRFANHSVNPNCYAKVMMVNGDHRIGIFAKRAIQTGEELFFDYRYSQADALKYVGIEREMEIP", "sequence (O75530 whole entry partner, species assumed)": "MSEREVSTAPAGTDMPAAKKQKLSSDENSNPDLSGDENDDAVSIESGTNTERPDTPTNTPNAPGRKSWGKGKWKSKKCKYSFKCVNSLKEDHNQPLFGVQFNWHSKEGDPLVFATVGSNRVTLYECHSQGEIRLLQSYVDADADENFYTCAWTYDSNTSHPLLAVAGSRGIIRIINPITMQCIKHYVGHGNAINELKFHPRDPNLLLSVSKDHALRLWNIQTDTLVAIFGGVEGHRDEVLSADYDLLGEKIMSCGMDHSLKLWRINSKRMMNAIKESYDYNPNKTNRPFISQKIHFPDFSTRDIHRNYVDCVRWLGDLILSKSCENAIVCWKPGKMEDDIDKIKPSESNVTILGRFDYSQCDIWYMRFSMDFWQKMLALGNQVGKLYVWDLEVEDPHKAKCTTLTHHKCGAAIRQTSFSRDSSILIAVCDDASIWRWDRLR", "sequence (Q15022 whole entry partner, species assumed)": "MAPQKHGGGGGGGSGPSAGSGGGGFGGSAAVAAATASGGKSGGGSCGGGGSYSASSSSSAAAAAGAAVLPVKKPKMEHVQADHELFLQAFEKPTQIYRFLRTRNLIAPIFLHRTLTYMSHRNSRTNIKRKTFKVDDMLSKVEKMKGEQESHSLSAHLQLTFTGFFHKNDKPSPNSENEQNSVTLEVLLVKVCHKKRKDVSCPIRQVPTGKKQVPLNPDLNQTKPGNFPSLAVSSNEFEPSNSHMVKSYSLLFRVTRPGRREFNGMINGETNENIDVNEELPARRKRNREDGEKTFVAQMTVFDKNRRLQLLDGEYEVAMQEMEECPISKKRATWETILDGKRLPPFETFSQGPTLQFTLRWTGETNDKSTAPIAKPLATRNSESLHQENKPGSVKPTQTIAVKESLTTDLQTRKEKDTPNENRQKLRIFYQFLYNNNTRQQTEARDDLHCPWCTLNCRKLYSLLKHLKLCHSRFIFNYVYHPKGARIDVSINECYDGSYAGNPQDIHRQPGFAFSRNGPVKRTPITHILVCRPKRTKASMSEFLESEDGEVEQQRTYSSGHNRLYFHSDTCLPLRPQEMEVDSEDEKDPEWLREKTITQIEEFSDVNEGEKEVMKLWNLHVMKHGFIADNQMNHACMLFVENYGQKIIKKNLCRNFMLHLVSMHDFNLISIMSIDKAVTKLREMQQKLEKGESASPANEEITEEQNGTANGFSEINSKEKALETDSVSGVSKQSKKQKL", "conditions": "cited from earlier work"}, "[2]": {"system": "PDX1-positive, NKX6.1-positive pancreatic progenitor cells", "assay": "FGF2 applied at S5 day 1 and day 2 of the Version A differentiation protocol; flow cytometry on S6d1", "assay_type": "cell-based, human", "conditions": "FGF2 100 ng/mL at S5 day 1 and day 2; FIGS. 8A-8B", "method": "(§1) For initial steps, basically, human pluripotent stem cell line SEM01 was thawed from a 3D suspension bank and seeded at a density of 1M cells/ml into 500 ml spinner flasks (Corning; 89,089-814) with 300 ml Nutristem media (Biological Industries 05-100-1A) supplemented with […] Y27632 (ab120129) and 100 ng/ml FGF2 (Peprotech RUO: 100-18B-1MG). Spinner flasks were placed on a magnetic stir plate (Chemglass) rotating at 60 r.p.m. in a humidified 37 C incubator set at 5% CO2. Cells were passaged every 72 hours. After 3 passages, cells were seeded at 0.5M cells/ml density and fed every 24 hours until 72 hours. Then, differentiation was initiated in spinner flasks using the Version A differentiation protocol which begins on day 1 of Stage 1 (S1, day 1). FGF2 was added to Stage 3, Stage 4, or Stage 5 as detailed below in the modified protocol.\n(§2) Version A protocol is a 6-stage stepwise protocol. With Version A protocol, stem cells were treated with reagents in the following consecutive orders during the six stages: Stage 1 (S1), Activin-A for 3 days and also CHIR99021 for the first 24 hr; Stage 2 (S2), KGF for 3 days; Stage 3 (S3), KGF, PDBU, Sant-1, retinoic acid (RA), Activin A, and Thiazovivin for 2 days, and also DMH-1 for the first day; Stage 4 (S4), KGF, Sant-1, Thiazovivin, Activin A, and RA for 6 days; Stage 5 (S5), XXI, Alk5i, GC-1, LDN-193189, Thiazovivin, Staurosporine, and DZNEP for 7 days, and also RA, Sant-1, and Betacellulin for the first 2 days.\nUpon completion of Stage 5, on Stage 6 day 1 (S6dl), the cells were collected, dispersed, and analyzed by flow cytometry. […] Stained cells were measured using an Accuri 6 flow cytometer (BD Biosciences) and analyzed using Accuri software.\nIn one experiment, Version A protocol, as described in Example 1, was compared with a modified protocol in which 100 ng/mL FGF2 was added on protocol day 15 and day 16 (Stage 5 day 1 and day 2). As described above, on S6dl, the cells were collected, dispersed, and analyzed by flow cytometry."}, "[3]": {"system": "Stage 6 cells (NKX6.1-positive, ISL1-positive endocrine cells)", "assay": "FGF2 applied at S6 of the Version A or Version B differentiation protocol; cell composition by flow cytometry", "assay_type": "cell-based, human", "method": "In one experiment, the effect of FGF2 treatment at S6 was examined by comparing Stage 6 cells generated with Version A protocol, as described in Example 1, or with Version A protocol plus FGF2 treatment (100 ng/mL) at S6 for the first 3 days.\nIn another experiment, the effect of FGF2 treatment at S6 was examined by comparing S6 cells generated under four differentiation conditions: Version A protocol; Version A protocol + FGF2 treatment (100 ng/mL for the first 12 days) at S6; Version B protocol; Version B protocol+ FGF2 treatment at S6. Version B protocol shares similar reagents and treatment timing with […], in Version B protocol, one difference from Version A protocols is that the cells were supplemented with 500 nM PDBU from day 5 of Stage 4 (S4d5) to day 2 of […] (S5d2). […]"}, "[4]": {"system": "PDX1-positive pancreatic progenitor cells", "assay": "FGF2 applied during S4 of the Version A differentiation protocol; flow cytometry of the resulting endocrine cell population", "assay_type": "cell-based, human", "method": "as §1, §2\n(§3) Upon completion of Stage 5, on Stage 6 day 1 (S6dl), the cells were collected, dispersed, and analyzed by flow cytometry. Briefly, islets were dispersed with TrypLE Express (Life Technologies; 12,604,013) at 37 C, fixed with 4% PFA for 20 mins at 4 C, blocked by 1 hour in FACS buffer (5% Donkey Serum and 0.1% Saponin in PBS) at room temperature, stained with NKX6.1 (DSHB FSSA12 1:100) and ISL1 (ab178400 1:500) antibodies diluted in FACS buffer overnight at 4 C. The next day, cells were washed twice with FACS buffer, stained with secondary antibody: anti-Rabbit AlexaFluor-488 (A31573 1:1000) and anti-Mouse Alexa Fluro-647 (A31571 1:1000) diluted in FACS buffer, and washed twice with FACS buffer. Stained cells were measured using an Accuri 6 flow cytometer (BD Biosciences) and analyzed using Accuri software.\nIn one experiment, Version A protocol, as described in Example 1, was compared with a modified protocol in which 100 ng/mL FGF2 was added on day 1, 3, and 5 of S4 to the culture medium. As described above, on S6dl, the cells were collected, dispersed, and analyzed by flow cytometry."}, "[5]": {"system": "primitive gut tube cells", "assay": "FGF2 applied during S3 of the Version A differentiation protocol; flow cytometry of the resulting endocrine cell population", "assay_type": "cell-based, human", "method": "An exemplary differentiation protocol, Version A, according to the present disclosure and its modified version, which added use of FGF2 at Stage 3, were tested for differentiating human stem cells into mature β cells capable of releasing insulin in response to glucose challenge in vitro.\nas §1, §2\nIn one experiment, on protocol day 7 (S3, day 1; S3dl), 10 mL of cell clusters were taken from the spinner flask and aliquoted into 2 wells of ultra-low attachment 6-well plates (Corning 29443) (5 mL/well). The plate was placed on an orbital shaker set to 130 rpm in the incubator. Cells received either control Version A conditions as described above or were supplemented with FGF2 (100 ng/ml) on protocol day 7 and day 8 only (S3d1 and S3d2).\nas §3"}, "[6]": {"conditions": "FGF2 treatment at S6, summary FIG. 8A"}, "[7]": {"conditions": "Version B protocol, FGF2 at S6, by S6d8 and S6d12, FIGS. 5A-C"}, "[8]": {"conditions": "FGF2 100 ng/mL at S4 versus Version A without FGF2, FIG. 2B"}, "[9]": {"conditions": "FGF2 treatment at S4, FIGS. 8A-8B"}, "[10]": {"conditions": "FGF2 treatment at S3, by the end of S5, FIGS. 8A-8B"}}}
{"compound": "CCCc1cc(C)[nH]c(=O)c1CNC(=O)c1cc(-c2ccc(N3CCN(C(C)C)CC3)nc2)cc2c1cnn2C(C)C", "note": "[UNC1999]", "values": [{"measurement": "selectivity compared with GSK126", "setting": "[1]", "result": "less selective"}]}
{"compound": "FGF2: growth factor from the FGF family; human FGF2 polypeptide sequence (GenBank Accession NP 001997); Peprotech RUO: 100-18B-1MG", "values": [{"measurement": "change in SC-EC cells", "setting": "[2]", "result": "decrease"}, {"measurement": "change in SC-α cells", "setting": "[2]", "result": "increase"}, {"measurement": "change in percentage of SC-β cells", "setting": "[2]", "result": "no significant change"}, {"measurement": "change in percentage of Ki67-positive cells", "setting": "[3]; FGF2 at S6, both Version A and Version B protocols", "result": "increased"}, {"measurement": "percentage of non-proliferating SOX9-positive cells (SOX9-positive, Ki67-negative)", "setting": "[3]; FGF2 at S6, by S6d12, both Version A and Version B protocols, without FGF2 15%-25%, FIG. 6A", "result": "about 65%"}, {"measurement": "percentage of proliferating SOX9-positive cells (SOX9-positive, Ki67-positive)", "setting": "[3]; FGF2 at S6, by S6d12, both Version A and Version B protocols, without FGF2 close to zero, FIG. 6B", "result": "15%-20%"}, {"measurement": "change in percentage of proliferating non-SOX9 cells (SOX9-negative, Ki67-positive)", "setting": "[3]; FGF2 treatment at S6, FIG. 6C", "result": "small change"}, {"measurement": "effect on SC-EC cells, as measured by expression of VMAT1, or positivity for NKX6.1 and negativity for ISL1", "setting": "[3]; FGF2 treatment at S6, S6d4, S6d8, S6d12, FIGS. 7A-7B", "result": "small effect"}, {"measurement": "change in percentage of SC-α cells", "setting": "[3]; [6]", "result": "increase"}, {"measurement": "change in percentage of SC-β cells", "setting": "[3]; [6]", "result": "increase"}, {"measurement": "change in percentage of SC-δ cells", "setting": "[3]; [6]", "result": "increase"}, {"measurement": "percentage of NKX6.1-positive, ISL1-positive SC-β cells", "setting": "[3]; Version A plus FGF2 100 ng/mL at S6 for the first 3 days, flow cytometry, without FGF2 18.5%", "result": 36.9, "unit": "%"}, {"measurement": "change in percentage of SC-β cell", "setting": "[3]; Version A protocol, FGF2 100 ng/mL for the first 12 days at S6, by S6d8 and S6d12", "result": "relatively unchanged"}, {"measurement": "change in SC-δ cell percentage", "setting": "[3]; [7]", "result": "increased"}, {"measurement": "change in percentage of SC-α cells", "setting": "[3]; [7]", "result": "reduced"}, {"measurement": "change in percentage of SC-β cells", "setting": "[3]; [7]", "result": "reduced"}, {"measurement": "change in SOX9-positive cells", "setting": "[3]; addition of FGF2 at S6, both Version A and Version B protocols", "result": "significantly increased"}, {"measurement": "change in percentage of glucagon-positive, ARX-positive cells", "setting": "[4]; [8]", "result": "increased"}, {"measurement": "change in percentage of total ARX-positive cells", "setting": "[4]; [8]", "result": "increased"}, {"measurement": "increase of the percentage of somatostatin-positive SC-δ cells", "setting": "[4]; [8]", "result": "about two"}, {"measurement": "percentage of NKX6.1-negative, ISL1-positive SC-α cells", "setting": "[4]; FGF2 100 ng/mL on day 1, 3 and 5 of S4, Version A, flow cytometry on S6d1, without FGF2 5.6%", "result": 12.0, "unit": "%"}, {"measurement": "percentage of NKX6.1-positive, ISL1-positive SC-β cells", "setting": "[4]; FGF2 100 ng/mL on day 1, 3 and 5 of S4, Version A, flow cytometry on S6d1, without FGF2 around 43%", "result": "around 55%"}, {"measurement": "change in percentage of SC-EC cells", "setting": "[4]; [9]", "result": "decreased"}, {"measurement": "change in percentage of SC-α cells", "setting": "[4]; [9]", "result": "increase"}, {"measurement": "change in percentage of SC-β cells", "setting": "[4]; [9]", "result": "increase"}, {"measurement": "change in percentage of SC-δ cells", "setting": "[4]; [9]", "result": "increase"}, {"measurement": "change in percentage of SOX9-positive cells", "setting": "[4]; [9]", "result": "decreased"}, {"measurement": "percentage of VMAT1-positive cells", "setting": "[4]; FGF2 treatment at S4, without FGF2 about 60%, FIG. 3B", "result": "about 40%"}, {"measurement": "percentage of SOX9-positive, NKX6.1-positive cells", "setting": "[4]; FGF2 treatment at S4, without FGF2 around 12.5%", "result": "around 5%"}, {"measurement": "percentage of total SOX9-positive cells", "setting": "[4]; FGF2 treatment at S4, without FGF2 around 20%, FIG. 3A", "result": "around 14%"}, {"measurement": "percentage of NKX6.1-positive, ISL1-negative cells", "setting": "[4]; FGF2 treatment at S4, without FGF2 around 40%, FIG. 3B", "result": "around 20%"}, {"measurement": "percentage of SC-α cells that express ISL1, but do not express NKX6.1", "setting": "[5]; FGF2 100 ng/ml on S3d1 and S3d2, Version A, flow cytometry on S6d1, without FGF2 9.7%", "result": 35.1, "unit": "%"}, {"measurement": "percentage of SC-enterochromaffin cells (SC-EC) that express NKX6 but not ISL1.1", "setting": "[5]; FGF2 100 ng/ml on S3d1 and S3d2, Version A, flow cytometry on S6d1, without FGF2 31.7%", "result": 13.1, "unit": "%"}, {"measurement": "percentage of SC-β cells that express both NKX6.1 and ISL1", "setting": "[5]; FGF2 100 ng/ml on S3d1 and S3d2, Version A, flow cytometry on S6d1, without FGF2 49.3%", "result": 36.6, "unit": "%"}, {"measurement": "change in percentage of SC-EC cells", "setting": "[5]; [10]", "result": "decreased"}, {"measurement": "change in percentage of SC-β cells", "setting": "[5]; [10]", "result": "decreased"}, {"measurement": "change in percentage of SC-α cells", "setting": "[5]; FGF2 treatment at S3, cells generated by the end of S5, FIGS. 8A-8B", "result": "increased"}]}
{"compound": "CC[C@H](C)n1cc(C)c2c(C(=O)NCc3c(C)cc(C)[nH]c3=O)cc(-c3ccc(N4CCNCC4)nc3)cc21", "note": "[GSK126]", "values": [{"measurement": "selectivity over EZH1", "setting": "[1]; EZH2 versus EZH1", "result": 150, "unit": "fold"}]}
